The test deals with Carboxylic ester hydrolase (Equus caballus, UniProt Q9N1N9). The experiment in a line: Enzyme Inhibition Assay. The note with it: pH 8; 25 °C. The protocol:
In vitro cholinesterase inhibition assay using electric-eel acetylcholinesterase, horse-serum butyrylcholinesterse. The IC50 values were calculated using the […] enzyme kinetics program (Perrella Scientific Inc., Amherst, USA).

Carboxylic ester hydrolase, sequence (Q9N1N9 whole entry): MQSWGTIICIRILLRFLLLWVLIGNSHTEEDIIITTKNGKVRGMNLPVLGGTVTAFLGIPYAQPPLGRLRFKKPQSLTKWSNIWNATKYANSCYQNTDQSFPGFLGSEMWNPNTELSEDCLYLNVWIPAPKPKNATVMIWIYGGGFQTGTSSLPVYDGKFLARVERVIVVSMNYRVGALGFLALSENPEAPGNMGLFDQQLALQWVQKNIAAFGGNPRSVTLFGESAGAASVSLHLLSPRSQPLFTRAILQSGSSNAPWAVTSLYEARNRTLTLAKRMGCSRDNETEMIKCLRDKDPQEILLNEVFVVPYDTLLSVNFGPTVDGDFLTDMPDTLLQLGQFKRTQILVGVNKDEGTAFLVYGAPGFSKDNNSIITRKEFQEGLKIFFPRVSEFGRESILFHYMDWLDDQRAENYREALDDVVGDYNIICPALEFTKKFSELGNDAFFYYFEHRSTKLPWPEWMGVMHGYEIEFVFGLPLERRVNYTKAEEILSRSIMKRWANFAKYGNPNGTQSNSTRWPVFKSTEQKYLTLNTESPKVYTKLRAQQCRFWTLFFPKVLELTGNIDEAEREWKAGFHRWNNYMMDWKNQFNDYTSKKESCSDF

Regarding `O=C(/C=C/c1ccc(O)cc1)c1ccccc1` [Chalcone 2], 40 µM corresponded to half-maximal inhibition (IC50). That is a double-digit micromolar value.

For `O=C(/C=C/c1ccccc1O)c1ccccc1` [Chalcone, 1], 16 µM corresponded to half-maximal inhibition (IC50). This IC50 lies about 2.5-fold lower than the previous one.

For the compound `O=C(/C=C/c1cccc(O)c1)c1ccccc1` [Chalcone, 2], 46.2 µM corresponded to half-maximal inhibition (IC50).

Turning to `COc1ccc(/C=C/C(=O)c2ccccc2)cc1` [Chalcone, 4], the IC50 (commonly the concentration at which inhibition is half-maximal) is 39 µM.

`COc1ccc(/C=C/C(=O)c2ccccc2)cc1OC` [Chalcone, 5] registered an IC50 of 23.1 µM. Against the preceding compound, the IC50 is about 1.7-fold lower.

As to `O=C(/C=C/c1ccccc1)c1ccccc1` [Chalcone, 13], the IC50 was 109 µM.

For the origin of these results see BindingDB's records for doi:10.1080/14756360400015231 (Quaid-I-Azam University, 2005).
